Data as given in patent US20250296959A1, “B7-H3 TARGETING PEPTIDES AND CONSTRUCTS THEREOF” (Mariana Oncology Inc., priority 2024, published 2025).
Read-outs that look alike come from different tables or passages of the source. Starred links: 1 amine or outer side, 2 acyl side, 3 side chain; linkers in the order of their positions; H or OH if unused. Positions of bridges follow the written chain, without caps; N, C: chain ends. Non-standard residues stand in square brackets, D forms with d. Residues, ends and D or L forms follow the SMILES beside them. *: point of attachment. X2 = O=C(O)CN1CCN(CC(=O)O)CCN(CC(=O)NCCOCCOCCOCCOCC(=O)*)CCN(CC(=O)O)CC1; Ala(1-CH2CO2H-4-piperidyl) = N[C@@H](CC1CCN(CC(=O)O)CC1)C(=O)O; Ala(piperidin-4-yl) = O=C([C@H](CC1CCN([*:3])CC1)N[*:1])[*:2]; DOTA = O=C(O)CN1CCN(CC(=O)O)CCN(CC(=O)*)CCN(CC(=O)O)CC1; Phe(4-NHCONH2) = NC(=O)Nc1ccc(C[C@H](N)C(=O)O)cc1; Trp(5-F) = N[C@@H](Cc1c[nH]c2ccc(F)cc12)C(=O)O; X1 = C[C@@H](c1ccccc1)[C@H](N[*:1])C(=O)[*:2]; 1Nal = N[C@@H](Cc1cccc2ccccc12)C(=O)O; Ala(4-THP) = N[C@@H](CC1CCOCC1)C(=O)O; Val(3-OH) = CC(C)(O)[C@H](N)C(=O)O; Tle = CC(C)(C)[C@H](N)C(=O)O; hLeu = CC(C)CC[C@H](N)C(=O)O

Tests used:
[1] = system: Calu-6 cell line; assay: Net internalization of [177Lu]Lu-labeled peptide in Calu-6 cells; assay type: cell-based, Human; settings: 1 hour, 37° C., glycine pH 2.5 acid wash
Summary of the method: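 Calu-6 cells, human non-engineered lung cancer expressing B7-H3, resuspended in 1% PBSA at 5 million cells/mL and incubated with the 177Lu-labeled conjugate (labeled at 80 °C, pH ~5, RP-HPLC checked). Gamma counting of the bound fraction, then of the pellet after two glycine pH 2.5 acid strips and NaOH lysis, gives internalized activity.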

[2] = molecular target: T1, human 4lg B7-H3 (Homo sapiens, UniProt Q5ZPR3); assay: Affinity determination by surface plasmon resonance (SPR) to 4Ig B7-H3; settings: 4Ig B7-H3
T1 sequence (Q5ZPR3 29-534): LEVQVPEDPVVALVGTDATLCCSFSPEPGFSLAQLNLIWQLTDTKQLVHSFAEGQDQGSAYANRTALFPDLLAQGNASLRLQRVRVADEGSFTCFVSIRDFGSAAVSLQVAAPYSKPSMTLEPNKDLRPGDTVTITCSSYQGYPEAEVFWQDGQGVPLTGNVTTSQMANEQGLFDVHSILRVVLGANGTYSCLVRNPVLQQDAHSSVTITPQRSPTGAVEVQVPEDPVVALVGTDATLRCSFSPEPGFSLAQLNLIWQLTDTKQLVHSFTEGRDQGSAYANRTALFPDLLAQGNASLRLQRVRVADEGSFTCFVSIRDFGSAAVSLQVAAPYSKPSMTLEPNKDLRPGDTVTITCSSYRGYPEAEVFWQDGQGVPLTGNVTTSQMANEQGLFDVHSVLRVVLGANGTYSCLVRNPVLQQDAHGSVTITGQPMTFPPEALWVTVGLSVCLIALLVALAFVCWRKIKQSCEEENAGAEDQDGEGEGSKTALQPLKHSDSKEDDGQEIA

[3] = system: Calu-6 cell line; assay: Cell associated (bound) fraction of [177Lu]Lu-labeled peptide in Calu-6 cells; assay type: cell-based, Human; settings: 1 hour, 37° C.
Summary of the method: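 Detached B7-H3-expressing human lung cancer cells at 5 million/mL were exposed for 1 hour at 37 °C to 0.8 μCi of the 177Lu-labelled peptide, which was formulated in 1% PBSA after labelling at 80 °C, pH ~5. Supernatant and two cold washes counted as unbound, and resuspended cells gamma-counted as the cell-associated fraction.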

[4] = read-out: SPR KD—37° C., 37° C. flow cell temperature
[5] = SPR KD—25° C., 25° C. flow cell temperature
[6] = read-out: SPR KD—25° C., 25° C. flow cell temperature

| SMILES | % net internalization [1] | Kd [2, 4] [nM] | % cell associated fraction [3] | Kd [2, 5] [nM] | Kd ([2]; SPR KD—37° C., 37° C. flow cell temperature) [nM] | Kd [2, 6] [nM] |
| --- | --- | --- | --- | --- | --- | --- |
| CC[C@H](C)[C@@H]1NC(=O)[C@@H](NC(=O)[C@H](Cc2ccc(O)cc2)NC(=O)[C@H](CCC(C)C)NC(C)=O)CSSC[C@@H](C(=O)N[C@@H](Cc2c[nH]c3ccc(F)cc23)C(=O)N[C@@H](Cc2ccccc2)C(=O)N[C@H](C(=O)N[C@H](CCCCNC(=O)CN2CCN(CC(=O)O)CCN(CC(=O)O)CCN(CC(=O)O)CC2)C(=O)O)C(C)(C)O)NC(=O)[C@H](Cc2ccc(O)cc2)NC(=O)[C@H](C(C)C)NC(=O)[C@H](CC(=O)O)NC(=O)[C@H](CC2CCOCC2)NC(=O)[C@H](CC2CCN(CC(=O)O)CC2)NC(=O)CNC1=O [compound 318, Ac-hLeu-Y-C-Ile-G-[Pip(CH2CO2H)Ala]-ThpA-D-V-Y-C-5FW-F-hydroxyVal-dLys(DOTA)-COOH] (Ac-[hLeu]YCIG[Ala(1-CH2CO2H-4-piperidyl)][Ala(4-THP)]DVYC[Trp(5-F)]F[Val(3-OH)][dK](DOTA)-OH; disulfide 3-11) | A (%≤25) | 1 to 10 | B (25<%≤50) | – | – | – |
| CC(=O)N[C@@H](CCC(C)C)C(=O)N[C@@H](Cc1ccc(O)cc1)C(=O)N[C@H]1CSSC[C@@H](C(=O)N[C@@H](Cc2cccc3ccccc23)C(=O)N[C@@H](Cc2ccccc2)C(=O)N2CCC[C@H]2C(=O)N[C@H](CCCCNC(=O)COCCOCCOCCOCCNC(=O)CN2CCN(CC(=O)O)CCN(CC(=O)O)CCN(CC(=O)O)CC2)C(N)=O)NC(=O)[C@H](Cc2ccc(O)cc2)NC(=O)[C@H](C(C)C)NC(=O)[C@H](CC(=O)O)NC(=O)[C@H](CC2CCOCC2)NC(=O)[C@H](CCCCN)NC(=O)CNC(=O)[C@H](C(C)(C)C)NC1=O [compound 259, Ac-hLeu-Y-C-Tbg-G-K-ThpA-D-V-Y-C-1Nal-F-Pro-dLys(PEG4-DOTA)-CONH2] (Ac-[hLeu]YC[Tle]GK[Ala(4-THP)]DVYC[1Nal]FP[dK](X2)-NH2; disulfide 3-11) | A (%≤25) | – | B (25<%≤50) | < 1 | 1 to 10 | – |
| CC(=O)N[C@@H](CCC(C)C)C(=O)N[C@@H](Cc1ccc(O)cc1)C(=O)N[C@H]1CSSC[C@@H](C(=O)N[C@@H](Cc2c[nH]c3ccc(F)cc23)C(=O)N[C@@H](Cc2ccccc2)C(=O)N2CCC[C@H]2C(=O)N[C@H](CCCCNC(=O)CN2CCN(CC(=O)O)CCN(CC(=O)O)CCN(CC(=O)O)CC2)C(N)=O)NC(=O)[C@H](Cc2ccc(O)cc2)NC(=O)[C@H](C(C)C)NC(=O)[C@H](CC(=O)O)NC(=O)[C@H](Cc2ccc(O)cc2)NC(=O)[C@H](CCCCN)NC(=O)CNC(=O)[C@H](C(C)C)NC1=O [compound 160, Ac-hLeu-Y-C-V-G-K-Y-D-V-Y-C-5FW-F-Pro-dLys(DOTA)-CONH2] (Ac-[hLeu]YCVGKYDVYC[Trp(5-F)]FP[dK](DOTA)-NH2; disulfide 3-11) | A (%≤25) | – | B (25<%≤50) | – | – | < 1 |
| CC(=O)N[C@@H](CCC(C)C)C(=O)N[C@@H](Cc1ccc(O)cc1)C(=O)N[C@H]1CSSC[C@@H](C(=O)N[C@@H](Cc2c[nH]c3ccc(F)cc23)C(=O)N[C@@H](Cc2ccccc2)C(=O)N[C@H](C(=O)N[C@H](CCCCNC(=O)CN2CCN(CC(=O)O)CCN(CC(=O)O)CCN(CC(=O)O)CC2)C(=O)O)C(C)(C)O)NC(=O)[C@H](Cc2ccc(O)cc2)NC(=O)[C@H](C(C)C)NC(=O)[C@H](CC(=O)O)NC(=O)[C@H](CC2CCOCC2)NC(=O)[C@H](CC2CCN(CC(=O)O)CC2)NC(=O)CNC(=O)[C@H](C(C)(C)C)NC1=O [compound 339, Ac-hLeu-Y-C-Tbg-G-[Pip(CH2CO2H)Ala]-ThpA-D-V-Y-C-5FW-F-hydroxyVal-dLys(DOTA)-COOH] (Ac-[hLeu]YC[Tle]G[Ala(1-CH2CO2H-4-piperidyl)][Ala(4-THP)]DVYC[Trp(5-F)]F[Val(3-OH)][dK](DOTA)-OH; disulfide 3-11) | B (25<%≤50) | < 1 | C (%>50) | – | – | – |
| CC[C@H](C)[C@@H]1NC(=O)[C@@H](NC(=O)[C@H](Cc2ccc(O)cc2)NC(=O)[C@H](CCC(C)C)NC(C)=O)CSSC[C@@H](C(=O)N[C@@H](Cc2c[nH]c3ccc(F)cc23)C(=O)N[C@@H](Cc2ccccc2)C(=O)N[C@H](C(N)=O)C(C)(C)O)NC(=O)[C@H](Cc2ccc(O)cc2)NC(=O)[C@H](C(C)C)NC(=O)[C@H](CC(=O)O)NC(=O)[C@H](CC2CCNCC2)NC(=O)[C@H](CCCCNC(=O)CN2CCN(CC(=O)O)CCN(CC(=O)O)CCN(CC(=O)O)CC2)NC(=O)CNC1=O [compound 203, Ac-hLeu-Y-C-Ile-G-Lys(DOTA)-PipAla-D-V-Y-C-5FW-F-hydroxyVal-CONH2] (Ac-[hLeu]YCIGK(DOTA)[Ala(piperidin-4-yl)]DVYC[Trp(5-F)]F[Val(3-OH)]-NH2; disulfide 3-11) | A (%≤25) | – | B (25<%≤50) | < 1 | – | – |
| CC(=O)N[C@@H](CCC(C)C)C(=O)N[C@@H](Cc1ccc(O)cc1)C(=O)N[C@H]1CSSC[C@@H](C(=O)N[C@@H](Cc2c[nH]c3ccc(F)cc23)C(=O)N[C@@H](Cc2ccccc2)C(=O)N2CCC[C@H]2C(=O)N[C@H](CCCCNC(=O)COCCOCCOCCOCCNC(=O)CN2CCN(CC(=O)O)CCN(CC(=O)O)CCN(CC(=O)O)CC2)C(N)=O)NC(=O)[C@H](Cc2ccc(O)cc2)NC(=O)[C@H](C(C)C)NC(=O)[C@H](CC(=O)O)NC(=O)[C@H](CC2CCOCC2)NC(=O)[C@H](CCCCN)NC(=O)CNC(=O)[C@H](C(C)C)NC1=O [compound 282, Ac-hLeu-Y-C-V-G-K-ThpA-D-V-Y-C-5FW-F-Pro-dLys(PEG4-DOTA)-CONH2] (Ac-[hLeu]YCVGK[Ala(4-THP)]DVYC[Trp(5-F)]FP[dK](X2)-NH2; disulfide 3-11) | A (%≤25) | – | B (25<%≤50) | < 1 | – | – |
| CC(=O)N[C@@H](CCC(C)C)C(=O)N[C@@H](Cc1ccc(O)cc1)C(=O)N[C@H]1CSSC[C@@H](C(=O)N[C@@H](Cc2c[nH]c3ccc(F)cc23)C(=O)N[C@@H](Cc2ccccc2)C(=O)N[C@H](C(=O)N[C@H](CCCCNC(=O)CN2CCN(CC(=O)O)CCN(CC(=O)O)CCN(CC(=O)O)CC2)C(=O)O)C(C)(C)O)NC(=O)[C@H](Cc2ccc(O)cc2)NC(=O)[C@H](C(C)C)NC(=O)[C@H](CC(=O)O)NC(=O)[C@H](CC2CCOCC2)NC(=O)[C@H](CCCCN)NC(=O)CNC(=O)[C@H](C(C)(C)C)NC1=O [compound 303, Ac-hLeu-Y-C-Tbg-G-K-ThpA-D-V-Y-C-5FW-F-hydroxyVal-dLys(DOTA)-COOH] (Ac-[hLeu]YC[Tle]GK[Ala(4-THP)]DVYC[Trp(5-F)]F[Val(3-OH)][dK](DOTA)-OH; disulfide 3-11) | B (25<%≤50) | < 1 | C (%>50) | – | – | < 1 |
| CC(=O)N[C@@H](CCC(C)C)C(=O)N[C@@H](Cc1ccc(O)cc1)C(=O)N[C@H]1CSSC[C@@H](C(=O)N[C@@H](Cc2cccc3ccccc23)C(=O)N[C@@H](Cc2ccccc2)C(=O)N[C@H](C(=O)N[C@H](CCCCNC(=O)CN2CCN(CC(=O)O)CCN(CC(=O)O)CCN(CC(=O)O)CC2)C(N)=O)[C@@H](C)O)NC(=O)[C@H](Cc2ccc(O)cc2)NC(=O)[C@H](C(C)C)NC(=O)[C@H](CC(=O)O)NC(=O)[C@H](Cc2ccc(O)cc2)NC(=O)[C@H](CCCCN)NC(=O)CNC(=O)[C@H](C(C)(C)C)NC1=O [compound 179, Ac-hLeu-Y-C-Tbg-G-K-Y-D-V-Y-C-1Nal-F-Thr-dLys(DOTA)-CONH2] (Ac-[hLeu]YC[Tle]GKYDVYC[1Nal]FT[dK](DOTA)-NH2; disulfide 3-11) | A (%≤25) | – | B (25<%≤50) | – | – | < 1 |
| CC(=O)N[C@@H](CCC(C)C)C(=O)N[C@@H](Cc1ccc(O)cc1)C(=O)N[C@H]1CSSC[C@@H](C(=O)N[C@@H](Cc2c[nH]c3ccc(F)cc23)C(=O)N[C@H](C(=O)N[C@H](C(=O)N[C@H](CCCCNC(=O)CN2CCN(CC(=O)O)CCN(CC(=O)O)CCN(CC(=O)O)CC2)C(=O)O)C(C)(C)O)[C@@H](C)c2ccccc2)NC(=O)[C@H](Cc2ccc(NC(N)=O)cc2)NC(=O)[C@H](C(C)C)NC(=O)[C@H](CC(=O)O)NC(=O)[C@H](CC2CCOCC2)NC(=O)[C@H](CC2CCN(CC(=O)O)CC2)NC(=O)CNC(=O)[C@H](C(C)(C)C)NC1=O [compound 499, Ac-hLeu-Y-C-Tbg-G-Pip(CH2COOH)Ala-ThpA-D-V-Aph(Cbm)-C-5FW-[(2S, 3S)beta-Me-Phe]-hydroxyVal-dLys(DOTA)-COOH] (Ac-[hLeu]YC[Tle]G[Ala(1-CH2CO2H-4-piperidyl)][Ala(4-THP)]DV[Phe(4-NHCONH2)]C[Trp(5-F)][X1][Val(3-OH)][dK](DOTA)-OH; disulfide 3-11) | A (%≤25) | < 1 | C (%>50) | – | – | – |
